In paper PMC3914206:

What was measured:
Assay in all cases: KiNativ chemical proteomics profiling in HeLa and PC3 cell lysates
Type in all cases: binding
[1] = biological target: T1, selected panels of kinases in HeLa and PC3 cell lysates (Homo sapiens, UniProt Q86UE8); settings: 10 uM; TLK2; peptide YVAVkIHQLNK; proteome PC3; labeling site Lys1
T1 construct: endogenous in cells; host or cells: HeLa and PC3 cell lysates

[2] = biological target: T2, selected panels of kinases in HeLa and PC3 cell lysates (Homo sapiens, UniProt P52333); settings: 10 uM; proteome HEL; peptide IADFGLAkLLPLDKDYYVVR; labeling site Activation Loop
T2 construct: endogenous in cells; host or cells: HeLa and PC3 cell lysates

[3] = biological target: T3, selected panels of kinases in HeLa and PC3 cell lysates (Homo sapiens, UniProt P23458); settings: 10 uM, proteome HEL; for % Inhibiton, JAK1 domain1: peptide […]kNLLLAR, labeling site Other
T3 construct: endogenous in cells; host or cells: HeLa and PC3 cell lysates
T3 sequence (P23458 whole entry, the tested form may be a part): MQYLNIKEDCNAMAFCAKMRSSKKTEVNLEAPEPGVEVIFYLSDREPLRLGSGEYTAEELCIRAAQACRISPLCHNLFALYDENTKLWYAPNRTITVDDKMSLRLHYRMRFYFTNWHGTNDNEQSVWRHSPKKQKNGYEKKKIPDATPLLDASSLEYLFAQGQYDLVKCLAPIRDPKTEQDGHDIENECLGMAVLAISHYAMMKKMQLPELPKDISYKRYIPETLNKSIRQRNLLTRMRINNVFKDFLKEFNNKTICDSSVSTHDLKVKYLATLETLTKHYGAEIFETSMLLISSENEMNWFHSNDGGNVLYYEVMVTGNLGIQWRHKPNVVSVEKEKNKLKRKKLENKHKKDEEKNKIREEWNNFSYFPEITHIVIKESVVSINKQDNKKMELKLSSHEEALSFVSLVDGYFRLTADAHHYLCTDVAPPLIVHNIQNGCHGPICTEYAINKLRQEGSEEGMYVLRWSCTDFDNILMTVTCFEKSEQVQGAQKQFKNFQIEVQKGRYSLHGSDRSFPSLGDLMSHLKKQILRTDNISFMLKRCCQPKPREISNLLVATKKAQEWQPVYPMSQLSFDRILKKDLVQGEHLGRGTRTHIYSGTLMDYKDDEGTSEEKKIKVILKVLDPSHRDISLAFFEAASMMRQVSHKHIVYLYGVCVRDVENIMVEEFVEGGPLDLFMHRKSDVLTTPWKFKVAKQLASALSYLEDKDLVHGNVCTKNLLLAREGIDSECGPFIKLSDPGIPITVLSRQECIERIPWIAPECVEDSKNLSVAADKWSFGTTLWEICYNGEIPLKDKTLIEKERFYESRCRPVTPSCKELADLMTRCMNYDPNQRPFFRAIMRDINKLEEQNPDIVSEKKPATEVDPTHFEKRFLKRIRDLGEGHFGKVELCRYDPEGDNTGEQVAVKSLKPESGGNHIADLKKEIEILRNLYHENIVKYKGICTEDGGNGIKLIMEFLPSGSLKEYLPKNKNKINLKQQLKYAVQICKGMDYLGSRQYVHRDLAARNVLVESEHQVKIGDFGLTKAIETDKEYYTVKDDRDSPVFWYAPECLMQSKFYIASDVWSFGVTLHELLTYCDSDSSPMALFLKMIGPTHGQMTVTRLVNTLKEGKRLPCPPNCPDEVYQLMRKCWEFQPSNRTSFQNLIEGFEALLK

[4] = biological target: T4, selected panels of kinases in HeLa and PC3 cell lysates (Homo sapiens, UniProt Q8IVH8); settings: 10 uM; proteome PC3; peptide […]kVIK; labeling site Lys1
T4 construct: endogenous in cells; host or cells: HeLa and PC3 cell lysates

[5] = biological target: T5, selected panels of kinases in HeLa and PC3 cell lysates (Homo sapiens, UniProt Q00536); settings: 10 uM; PCTAIRE1; peptide LTDNLVALkEIR; proteome PC3; labeling site Lys1
T5 construct: endogenous in cells; host or cells: HeLa and PC3 cell lysates

[6] = biological target: T6, selected panels of kinases in HeLa and PC3 cell lysates (Homo sapiens, UniProt Q13233); settings: 10 uM; proteome HEL; peptide DVk[…]; labeling site Lys2
T6 construct: endogenous in cells; host or cells: HeLa and PC3 cell lysates

[7] = biological target: T7, selected panels of kinases in HeLa and PC3 cell lysates (Homo sapiens, UniProt O14936); settings: 10 uM; proteome PC3; peptide ETGQQFAVkIVDVAK; labeling site Lys1
T7 construct: endogenous in cells; host or cells: HeLa and PC3 cell lysates

[8] = biological target: T8, selected panels of kinases in HeLa and PC3 cell lysates (Homo sapiens, UniProt Q8TD19); settings: 10 uM
T8 construct: endogenous in cells; host or cells: HeLa and PC3 cell lysates
T8 sequence (Q8TD19 1-979): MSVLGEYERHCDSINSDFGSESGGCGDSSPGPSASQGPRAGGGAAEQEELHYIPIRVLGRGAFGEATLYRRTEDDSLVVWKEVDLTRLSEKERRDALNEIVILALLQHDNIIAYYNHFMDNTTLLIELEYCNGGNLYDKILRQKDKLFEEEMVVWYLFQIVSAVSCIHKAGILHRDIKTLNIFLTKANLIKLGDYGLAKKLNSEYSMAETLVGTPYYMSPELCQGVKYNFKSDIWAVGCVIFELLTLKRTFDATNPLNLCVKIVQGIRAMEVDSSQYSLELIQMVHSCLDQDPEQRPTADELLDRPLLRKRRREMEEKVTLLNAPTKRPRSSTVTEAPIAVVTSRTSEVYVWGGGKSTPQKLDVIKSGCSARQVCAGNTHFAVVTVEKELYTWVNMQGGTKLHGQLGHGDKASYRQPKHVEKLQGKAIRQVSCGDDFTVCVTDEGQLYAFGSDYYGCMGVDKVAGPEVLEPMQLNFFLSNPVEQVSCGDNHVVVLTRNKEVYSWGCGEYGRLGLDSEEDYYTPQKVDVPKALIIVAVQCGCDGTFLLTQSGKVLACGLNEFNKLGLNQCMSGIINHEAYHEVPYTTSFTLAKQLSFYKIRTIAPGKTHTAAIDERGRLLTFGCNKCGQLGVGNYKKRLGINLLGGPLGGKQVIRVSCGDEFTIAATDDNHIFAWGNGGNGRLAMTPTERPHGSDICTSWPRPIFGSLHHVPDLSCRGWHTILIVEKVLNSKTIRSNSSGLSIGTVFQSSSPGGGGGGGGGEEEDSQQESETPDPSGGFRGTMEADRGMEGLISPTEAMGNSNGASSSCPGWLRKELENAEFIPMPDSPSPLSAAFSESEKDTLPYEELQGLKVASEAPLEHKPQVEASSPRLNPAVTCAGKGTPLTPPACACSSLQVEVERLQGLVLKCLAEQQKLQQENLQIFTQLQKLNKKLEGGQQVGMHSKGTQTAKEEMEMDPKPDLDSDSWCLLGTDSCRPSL

[9] = biological target: T9, selected panels of kinases in HeLa and PC3 cell lysates (Homo sapiens, UniProt Q9P2K8); settings: 10 uM
T9 construct: endogenous in cells; host or cells: HeLa and PC3 cell lysates
T9 sequence (Q9P2K8 whole entry): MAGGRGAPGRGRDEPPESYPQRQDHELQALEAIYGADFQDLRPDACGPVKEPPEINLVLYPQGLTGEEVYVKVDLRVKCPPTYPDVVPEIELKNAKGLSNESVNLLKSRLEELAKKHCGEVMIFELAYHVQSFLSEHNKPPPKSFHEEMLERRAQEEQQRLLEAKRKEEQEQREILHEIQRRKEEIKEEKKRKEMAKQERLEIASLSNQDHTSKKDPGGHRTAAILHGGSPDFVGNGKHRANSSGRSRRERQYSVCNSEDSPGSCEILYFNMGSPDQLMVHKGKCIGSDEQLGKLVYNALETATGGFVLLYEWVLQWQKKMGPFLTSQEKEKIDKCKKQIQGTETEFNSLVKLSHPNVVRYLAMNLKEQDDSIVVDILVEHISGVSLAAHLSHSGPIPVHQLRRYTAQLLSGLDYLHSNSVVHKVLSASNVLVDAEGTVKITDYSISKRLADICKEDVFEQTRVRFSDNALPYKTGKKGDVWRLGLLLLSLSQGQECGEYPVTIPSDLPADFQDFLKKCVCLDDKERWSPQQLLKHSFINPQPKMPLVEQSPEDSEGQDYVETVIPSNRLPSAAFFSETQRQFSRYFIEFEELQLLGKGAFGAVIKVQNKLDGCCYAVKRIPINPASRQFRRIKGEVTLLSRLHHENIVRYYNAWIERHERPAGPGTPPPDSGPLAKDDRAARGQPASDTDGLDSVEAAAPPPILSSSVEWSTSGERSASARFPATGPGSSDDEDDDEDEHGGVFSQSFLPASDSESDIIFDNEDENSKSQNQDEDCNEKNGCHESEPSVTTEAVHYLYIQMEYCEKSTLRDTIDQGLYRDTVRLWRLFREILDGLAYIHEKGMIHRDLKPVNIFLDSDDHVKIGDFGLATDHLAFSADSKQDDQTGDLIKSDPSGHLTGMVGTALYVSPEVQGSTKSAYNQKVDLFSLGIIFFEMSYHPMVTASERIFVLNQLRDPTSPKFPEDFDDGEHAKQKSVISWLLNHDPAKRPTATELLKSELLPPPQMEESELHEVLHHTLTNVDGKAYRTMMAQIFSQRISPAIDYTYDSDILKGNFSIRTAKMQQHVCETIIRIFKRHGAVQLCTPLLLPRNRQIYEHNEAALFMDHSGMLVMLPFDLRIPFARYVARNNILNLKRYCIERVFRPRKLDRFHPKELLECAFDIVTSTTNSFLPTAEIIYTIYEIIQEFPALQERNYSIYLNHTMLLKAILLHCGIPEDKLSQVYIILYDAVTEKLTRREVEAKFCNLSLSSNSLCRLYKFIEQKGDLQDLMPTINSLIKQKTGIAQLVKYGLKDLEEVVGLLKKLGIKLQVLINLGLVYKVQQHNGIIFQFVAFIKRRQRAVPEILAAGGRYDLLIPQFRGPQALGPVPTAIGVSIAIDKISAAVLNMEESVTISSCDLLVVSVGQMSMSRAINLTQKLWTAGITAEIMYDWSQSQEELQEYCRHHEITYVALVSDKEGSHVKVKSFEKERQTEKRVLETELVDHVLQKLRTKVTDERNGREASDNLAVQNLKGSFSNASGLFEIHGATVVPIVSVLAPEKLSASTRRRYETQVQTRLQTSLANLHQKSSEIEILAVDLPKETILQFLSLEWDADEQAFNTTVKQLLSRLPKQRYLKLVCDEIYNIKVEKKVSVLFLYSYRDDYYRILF

[10] = biological target: T10, selected panels of kinases in HeLa and PC3 cell lysates (Homo sapiens, UniProt Q09013); settings: 10 uM; proteome HEL; peptide DIkPDNILLDR; labeling site Lys2
T10 construct: endogenous in cells; host or cells: HeLa and PC3 cell lysates
T10 sequence (Q09013 whole entry): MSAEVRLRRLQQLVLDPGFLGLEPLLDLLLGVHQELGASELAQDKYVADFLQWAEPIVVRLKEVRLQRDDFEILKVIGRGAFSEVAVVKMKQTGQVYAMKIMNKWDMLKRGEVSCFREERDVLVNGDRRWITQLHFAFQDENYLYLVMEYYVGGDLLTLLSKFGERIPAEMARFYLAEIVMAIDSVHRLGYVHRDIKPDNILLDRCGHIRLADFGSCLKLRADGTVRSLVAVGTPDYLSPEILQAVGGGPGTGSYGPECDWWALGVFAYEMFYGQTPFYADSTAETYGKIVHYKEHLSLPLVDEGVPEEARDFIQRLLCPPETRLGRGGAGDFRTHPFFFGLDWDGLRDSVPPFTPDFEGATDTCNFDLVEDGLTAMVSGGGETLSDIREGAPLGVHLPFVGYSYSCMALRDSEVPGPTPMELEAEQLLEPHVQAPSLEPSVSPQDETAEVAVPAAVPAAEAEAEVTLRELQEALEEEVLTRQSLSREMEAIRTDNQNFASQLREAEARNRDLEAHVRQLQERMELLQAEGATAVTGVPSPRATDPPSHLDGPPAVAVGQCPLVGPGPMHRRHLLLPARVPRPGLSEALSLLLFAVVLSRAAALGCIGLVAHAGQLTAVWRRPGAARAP

[11] = biological target: T11, selected panels of kinases in HeLa and PC3 cell lysates (Homo sapiens, UniProt Q96GD4); settings: 10 uM; proteome HEL; peptide SHFIVALkVLFK; labeling site Lys1
T11 construct: endogenous in cells; host or cells: HeLa and PC3 cell lysates

[12] = biological target: T12, selected panels of kinases in HeLa and PC3 cell lysates (Homo sapiens, UniProt P42338); settings: 10 uM; PIK3CB; peptide […]k[…]; proteome PC3; labeling site ATP
T12 construct: endogenous in cells; host or cells: HeLa and PC3 cell lysates

[13] = biological target: T13, selected panels of kinases in HeLa and PC3 cell lysates (Homo sapiens, UniProt Q16584); settings: 10 uM, peptide DLk[…], labeling site Lys2
T13 construct: endogenous in cells; host or cells: HeLa and PC3 cell lysates
T13 sequence (Q16584 whole entry): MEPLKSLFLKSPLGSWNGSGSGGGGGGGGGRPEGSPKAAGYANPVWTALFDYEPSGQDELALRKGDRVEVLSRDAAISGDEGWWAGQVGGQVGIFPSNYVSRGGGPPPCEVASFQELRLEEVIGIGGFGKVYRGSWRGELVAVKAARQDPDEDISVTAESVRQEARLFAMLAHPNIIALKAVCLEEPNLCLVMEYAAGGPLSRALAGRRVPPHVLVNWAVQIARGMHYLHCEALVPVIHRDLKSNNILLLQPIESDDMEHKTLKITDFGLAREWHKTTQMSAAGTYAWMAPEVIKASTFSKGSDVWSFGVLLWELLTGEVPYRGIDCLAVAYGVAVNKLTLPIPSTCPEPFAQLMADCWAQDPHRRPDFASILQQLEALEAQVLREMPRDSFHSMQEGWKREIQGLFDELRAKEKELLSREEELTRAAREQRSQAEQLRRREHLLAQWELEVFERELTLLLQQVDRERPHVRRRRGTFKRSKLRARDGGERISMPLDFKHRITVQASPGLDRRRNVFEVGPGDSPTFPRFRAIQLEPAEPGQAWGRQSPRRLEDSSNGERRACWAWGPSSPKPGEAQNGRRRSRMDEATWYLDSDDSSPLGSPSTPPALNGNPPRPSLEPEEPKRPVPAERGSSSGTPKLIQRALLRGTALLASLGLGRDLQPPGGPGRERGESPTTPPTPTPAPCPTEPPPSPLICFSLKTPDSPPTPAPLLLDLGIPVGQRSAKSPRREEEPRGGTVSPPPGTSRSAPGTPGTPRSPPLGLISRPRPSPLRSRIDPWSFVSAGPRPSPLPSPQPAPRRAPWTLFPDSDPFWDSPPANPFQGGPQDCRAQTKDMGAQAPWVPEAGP

[14] = biological target: T14, selected panels of kinases in HeLa and PC3 cell lysates (Homo sapiens, UniProt Q9NYL2); settings: 10 uM, ZAK, peptide […]k, labeling site Lys1
T14 construct: endogenous in cells; host or cells: HeLa and PC3 cell lysates
T14 sequence (Q9NYL2 whole entry): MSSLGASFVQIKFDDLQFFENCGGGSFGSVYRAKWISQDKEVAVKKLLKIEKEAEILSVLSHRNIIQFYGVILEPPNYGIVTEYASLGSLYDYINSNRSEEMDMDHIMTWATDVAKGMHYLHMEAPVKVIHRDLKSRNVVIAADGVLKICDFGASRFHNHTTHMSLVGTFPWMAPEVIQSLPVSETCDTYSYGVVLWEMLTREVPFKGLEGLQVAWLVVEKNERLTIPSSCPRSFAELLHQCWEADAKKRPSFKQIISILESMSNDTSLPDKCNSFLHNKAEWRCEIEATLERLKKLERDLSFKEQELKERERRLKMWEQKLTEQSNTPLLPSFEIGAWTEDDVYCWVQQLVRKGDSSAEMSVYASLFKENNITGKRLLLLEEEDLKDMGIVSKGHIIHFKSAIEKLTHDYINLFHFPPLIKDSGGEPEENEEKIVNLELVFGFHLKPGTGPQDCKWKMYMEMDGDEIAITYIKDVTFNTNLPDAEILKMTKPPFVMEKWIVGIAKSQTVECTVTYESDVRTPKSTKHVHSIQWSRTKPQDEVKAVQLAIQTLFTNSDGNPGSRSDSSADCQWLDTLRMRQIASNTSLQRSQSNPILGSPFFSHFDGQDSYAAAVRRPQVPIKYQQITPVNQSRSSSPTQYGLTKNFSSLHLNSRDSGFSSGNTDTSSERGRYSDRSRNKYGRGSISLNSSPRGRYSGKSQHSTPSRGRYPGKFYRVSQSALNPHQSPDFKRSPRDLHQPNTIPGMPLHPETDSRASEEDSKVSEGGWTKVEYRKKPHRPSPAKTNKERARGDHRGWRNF

[15] = biological target: T15, selected panels of kinases in HeLa and PC3 cell lysates (Homo sapiens, UniProt Q92918); settings: 10 uM; proteome HEL; peptide […]kMVK; labeling site Lys1
T15 construct: endogenous in cells; host or cells: HeLa and PC3 cell lysates

[16] = biological target: T16, selected panels of kinases in HeLa and PC3 cell lysates (Homo sapiens, UniProt P78527); settings: 10 uM, labeling site ATP
T16 construct: endogenous in cells; host or cells: HeLa and PC3 cell lysates

[17] = biological target: T17, selected panels of kinases in HeLa and PC3 cell lysates (Homo sapiens, UniProt P29323); settings: 10 uM; proteome PC3; peptide […]kIPIR; labeling site Activation Loop
T17 construct: endogenous in cells; host or cells: HeLa and PC3 cell lysates

[18] = peptide IGDFGLTk[…], labeling site Activation Loop
[19] = peptide […]k[…], labeling site Lys1
[20] = proteome HEL, peptide DIkTLNIFLTK, labeling site Lys2
[21] = proteome HEL, peptide LGDYGLAkK, labeling site Activation Loop
[22] = proteome PC3, peptide DIkTLNIFLTK, labeling site Lys2
[23] = proteome PC3, peptide LGDYGLAkK, labeling site Activation Loop
[24] = proteome HEL, peptide LDGCCYAVkR, labeling site Lys1
[25] = proteome PC3, peptide DLk[…], labeling site Lys2
[26] = proteome PC3, peptide LDGCCYAVkR, labeling site Lys1

Row | Compound | % Inhibition TLK2 [1] [%] | % Inhibiton, JAK3 domain2 [2] [%] | % Inhibiton, JAK1 domain2 [3, 18] [%] | % Inhibiton, JAK1 domain1 [3] [%] | % Inhibiton, JAK1 domain2 [3, 19] [%] | % Inhibiton, KHS2 [4] [%] | % Inhibition PCTAIRE1 [5] [%] | % Inhibiton, MAP3K1 [6] [%] | % Inhibiton, CASK [7] [%] | % Inhibiton, NEK9 [8, 20] [%] | % Inhibiton, NEK9 [8, 21] [%] | % Inhibiton, NEK9 [8, 22] [%] | % Inhibiton, NEK9 [8, 23] [%] | % Inhibiton, GCN2 [9, 24] [%] | % Inhibiton, GCN2 [9, 25] [%] | % Inhibiton, GCN2 [9, 26] [%] | % Inhibiton, DMPK1 [10] [%] | % Inhibiton, AurB [11] [%] | % Inhibition PIK3CB [12] [%] | % Inhibiton, MLK3 ([13]; proteome HEL) [%] | also measured
1 | CCOc1cc(C(=O)N2CCC(N3CCN(C)CC3)CC2)ccc1Nc1ncc2c(n1)N(C1CCCC1)c1ccccc1C(=O)N2C [Compound 26] | -11.7 | ~53.9 | 6.3 | 24.2 | 32.1 | -3.3 | -26.9 | 2.2 | -36.1 | 7.6 | -3 | -4.7 | 6.4 | -6.3 | 1.6 | 6.4 | 29.4 | 42.5 | -124.1 | -12.1 | % Inhibiton, MLK3 ([13]; proteome PC3): 11.9%; % Inhibition ZAK ([14]; proteome HEL): 13.4%; % Inhibition ZAK ([14]; proteome PC3): -25.5%; % Inhibiton, HPK1 [15]: -10.9%; % Inhibiton, DNAPK ([16]; proteome HEL, peptide […]k[…]): 2.3%; % Inhibiton, DNAPK ([16]; proteome PC3, peptide […]k[…]): 10.1%; % Inhibiton, DNAPK ([16]; proteome PC3, peptide k[…]): 23.8%; % Inhibiton, EphB2 [17]: -3.1%
2 | COc1cc(C(=O)N2CCC(N3CCN(C)CC3)CC2)ccc1Nc1ncc2c(n1)N(C1CCCC1)c1ccccc1C(=O)N2C [Compound 25, 11-cyclopentyl-2-((2-methoxy-4-(4-(4-methylpiperazin-1-yl)piperidine-1-carbonyl)phenyl)amino)-5-methyl-5H-benzo[e]pyrimido[5,4-b][1,4]diazepin-6(11H)-one] | -3.6 | 31.8 | 5.1 | 3.2 | 4.8 | -4.9 | -25.8 | 36.1 | -0.2 | 14.6 | 1.9 | 1.6 | 6.7 | 4.5 | -1.6 | -1.5 | 10.0 | 65.8 | 0.8 | 3.1 | % Inhibiton, MLK3 ([13]; proteome PC3): 4.4%; % Inhibition ZAK ([14]; proteome HEL): -6.6%; % Inhibition ZAK ([14]; proteome PC3): -9.3%; % Inhibiton, HPK1 [15]: -8.3%; % Inhibiton, DNAPK ([16]; proteome HEL, peptide […]k[…]): 2.3%; % Inhibiton, DNAPK ([16]; proteome PC3, peptide […]k[…]): -16.3%; % Inhibiton, DNAPK ([16]; proteome PC3, peptide k[…]): -9.9%; % Inhibiton, EphB2 [17]: -3.8%
